Like-named read-outs stand apart in the source and are kept apart here.
Experiment: Pharmacokinetics of HLJDD components in rat plasma after oral administration of HLJDD (LC-QqQ-MS, non-compartmental)
Type: in vivo, Sprague-Dawley rats
Conditions: oral HLJDD extract; for AUC%Extrap / AUMClast / Cmax1 / Cmax2 / HLλz / Tmax1 / Tmax2 / AUC(0-inf) / AUC(0-t) / MRT last / CL/F / Vd/F / AUCinf / AUClast / MRTlast / Vz/F: crude material 3.5 g/kg, plasma, n = 6; for mean AUClast, fold larger in the inflamed group than in the control group: inflamed vs normal rats; for Vd/F: read-out: Vz/F
Method: The rats were acclimatized to the facilities for 5 days and screened via the continuous determination of the rectal temperature for two days. […] The control group G1 was injected with the same volume of physiological saline. The ethics committees of Cisco North Biotechnology Co., Ltd. (Beijing, China) and the China Academy of Chinese Medical Sciences (Beijing, China) approved the experimental protocol.
For the PK-PD analysis, cannulas were implanted in each rat’s jugular vein (n = 22). To study the hepatic first-pass effect (HFPE), the jugular vein and the pyloric vein of each rat (n = 5) were cannulated according to the method described by Hye J. Chung et al. with slight modifications. Instead of the portal vein, the pyloric vein was cannulated to minimize the interference of blood flow in the portal vein [41]. The surgery was performed under anesthesia (3% chloral hydrate solution, intraperitoneal injection; 3.5 mL/kg) 5 days prior to the experiment. Rats with jugular vein intubation surgery were divided into four groups: a control group with HLJDD (G1, n = 6), aninflammatory group with HLJDD (G2, n = 6), aninflammatory group with physiological saline (G3, n = 5) and another inflammatory group with HLJDD (G4, n = 5). G1 and G2 were used for the pharmacokinetic study, while G3 and G4 were used for the pharmacodynamic study. Rats with jugular and pyloric vein cannulation for HFPE analysis were assigned to another inflammatory group with HLJDD (G5, n = 5).
The prepared HLJDD-EP solution was administered to the rats (G1, G2, G4 and G5) at 2 mL/100g body weight (crude material content: 3.5 g/kg) by oral gavage, and the G3 group was given the same volume of physiological saline. […] The rectal temperature of rats in the G3 and G4 groups was immediately monitored after each collection of blood. […] Samples were collected in heparinized Eppendorf tubes and centrifuged at 3000 rpm for 15 min. The plasma was stored at -80°C until assay.
The supernatant was dried with nitrogen at 40°C. The residue was re-dissolved in 100 μL of methanol and centrifuged at 15000 rpm for 10 min.
Liquid chromatographic separations of the analytes were performed using a Thermo Scientific Hypersil GOLD column (50 mm× 2.1 mm, 1.9 μm). The mobile phase consisted of acetonitrile (solvent A) and 0.1% formic acid in water (solvent B). […] The flow rate was 0.3 mL/min. The injection volume was 2 μL. […] The optimized ESI source parameters were as follows: gas temperature, 200°C; gas flow, 14 L/min; nebulizer pressure, 20 psi; sheath gas temperature, 400°C; and sheath gas flow, 11 L/min. Analytes were quantitated by monitoring the precursor-product combination in the DMRM mode using ion polarity switching (flavonoids and alkaloids were determined in the positive mode, while iridoids were detected in the negative mode). To ensure the desired abundance of each compound, the CE values and other parameters were optimized and illustrated as follows: cycle time, 300 ms; positive capillary voltage, 3000 v; negative capillary voltage, 2000 v; positive nozzle voltage, 1500 v; negative nozzle voltage, 1000 v; Delta EMV(+), 200 v; Delta EMV(-), 200 v. The optimized mass transition ion pairs (m/z) for analytes and the detection of the conditions of the compounds are shown in S1 Table.
Pharmacokinetic parameters of the determined compounds were processed by the non-compartmental method using Phoenix Winnonlin software (Pharsight Corporation, USA). Linear trapezoidal integration was used to calculate areas under the concentration-time curves (AUC) and areas under the first moment curves (AUMC). The mean residence time (MRT) was determined as AUMC/AUC. The plasma half-life (HLλz), maximum plasma concentration (Cmax), the time to reach Cmax (Tmax) and other parameters following the administration of HLJDD were determined from the observed data. The HFPE was defined as HCR: HCR% = 100×(AUC0−t in the pyloric vein-AUC0−t in the jugular vein)/AUC0−t in the pyloric vein.

[1] = male, Sprague-Dawley, rat, po, 3.5 g/kg, inflamed rats (group M)
[2] = male, Sprague-Dawley, rat, po, 3.5 g/kg, inflamed rats (group M), read-out: CL/F (converted)
[3] = male, Sprague-Dawley, rat, po, 3.5 g/kg, normal rats (group B)
[4] = male, Sprague-Dawley, rat, in vivo, po, 3.5 g/kg, inflamed rats (group M)
[5] = male, Sprague-Dawley, rat, in vivo, po, 3.5 g/kg, normal rats (group B)

| Compound | AUC%Extrap (inflamed rats (group M)) | AUMClast (inflamed rats (group M)) | Cmax1 (inflamed rats (group M)) | Cmax2 (inflamed rats (group M)) | HLλz (inflamed rats (group M)) | Tmax1 (inflamed rats (group M)) | Tmax2 (inflamed rats (group M)) | mean AUClast, fold larger in the inflamed group than in the control group | AUC(0-inf) [1] | AUC(0-t) [1] | MRT last [1] | AUC(0-inf) [3] | AUC(0-t) [3] | AUC%Extrap (normal rats (group B)) | AUMClast (normal rats (group B)) | Cmax1 (normal rats (group B)) | Cmax2 (normal rats (group B)) | HLλz (normal rats (group B)) | Tmax1 (normal rats (group B)) | Tmax2 (normal rats (group B)) | also measured |
| --- | --- | --- | --- | --- | --- | --- | --- | --- | --- | --- | --- | --- | --- | --- | --- | --- | --- | --- | --- | --- | --- |
| O=C(O)[C@H]1O[C@@H](Oc2cc3oc(-c4ccccc4)cc(=O)c3c(O)c2O)[C@H](O)[C@@H](O)[C@@H]1O [baicalin] | 2.7±0.5% | 175077.1±103375.1 h*h*ng/ml | 2420.9 ± 922.5 ng/mL | 1000.4 ± 298.1 ng/mL | 4.7 ± 1.1 h | 0.1 ± 0.04 h | 9.3 ± 2.1 h | 2.0 fold | 16800 ± 9090 ng·h/mL | 15700 ± 9300 ng·h/mL | 10.1 ± 2.3 h | 8130 ± 906 ng·h/mL | 7880 ± 775 ng·h/mL | 2.9±2.3% | 34124.1±4967.9 h*h*ng/ml | 1828.8 ± 737.4 ng/mL | 1580.1 ± 202.4 ng/mL | 1.8 ± 0.4 h | 0.09 ± 0.03 h | 4.3 ± 0.8 h | CL/F [2]: 145 mL/min/kg; Vd/F [1]: 58.8 ± 25.2 L/kg; MRT last [3]: 4.3 ± 0.3 h; CL/F (male, Sprague-Dawley, rat, po, 3.5 g/kg, normal rats (group B), read-out: CL/F (converted)): 258 mL/min/kg; Vd/F [3]: 39.6 ± 7.1 L/kg |
| COc1ccc2cc3[n+](cc2c1OC)CCc1cc2c(cc1-3)OCO2 [berberine] | 10.7±7.0% | 22.6±8.6 h*h*ng/ml | 0.5 ± 0.2 ng/mL | 0.3 ± 0.3 ng/mL | 9.1 ± 2.5 h | 1.0 ± 0.6 h | 10.8 ± 2.7 h | 2.1 fold | 3.4 ± 0.7 ng·h/mL | 2.7 ± 0.8 ng·h/mL | 8.4 ± 3.1 h | 1.8 ± 0.6 ng·h/mL | 1.3 ± 0.5 ng·h/mL | 25.9±15.5% | 8.9±8.6 h*h*ng/ml | 0.4 ± 0.1 ng/mL | 0.1 ± 0.03 ng/mL | 6.3 ± 3.5 h | 0.6 ± 0.4 h | 8.0 ± 2.2 h | MRT last [3]: 5.7 ± 3.5 h |
| COC(=O)C1=CO[C@@H](O[C@@H]2O[C@H](CO)[C@@H](O)[C@H](O)[C@H]2O)[C@@H]2C(CO)=CC[C@H]12 [geniposide] | 8.9±2.9% | 1231.9±677.2 h*h*ng/ml | 223.2 ± 43.7 ng/mL |  | 1.6 ± 0.7 h | 0.8 ± 0.3 h |  | 2.9 fold |  |  |  |  |  | 11.5±1.5% | 192.5±74.8 h*h*ng/ml | 171.6 ± 70.6 ng/mL |  | 0.6 ± 0.3 h | 0.7 ± 0.3 h |  | AUC(0-inf) [4]: 696 ± 363 ng·h/mL; AUC(0-t) [4]: 638 ± 323 ng·h/mL; MRT last [4]: 1.9 ± 0.8 h; CL/F (male, Sprague-Dawley, rat, in vivo, po, 3.5 g/kg, inflamed rats (group M), read-out: CL/F (converted)): 3760 mL/min/kg; Vd/F [4]: 372 ± 86.7 L/kg; AUC(0-inf) [5]: 240 ± 82.1 ng·h/mL; AUC(0-t) [5]: 217 ± 86.2 ng·h/mL; MRT last [5]: 0.9 ± 0.1 h; CL/F (male, Sprague-Dawley, rat, in vivo, po, 3.5 g/kg, normal rats (group B), read-out: CL/F (converted)): 6860 mL/min/kg; Vd/F [5]: 235 ± 94.2 L/kg |
| COc1ccc2c(c1O)-c1c(O)c(OC)cc3c1[C@H](C2)[N+](C)(C)CC3 [magnolflorine] | 17.6±8.0% | 97.9±55.4 h*h*ng/ml | 6.0 ± 1.7 ng/mL |  | 4.3 ± 2.2 h | 0.6 ± 0.3 h |  | 1.6 fold |  |  |  |  |  | 6.2±2.4% | 29.5±5.8 h*h*ng/ml | 6.5 ± 1.1 ng/mL |  | 1.6 ± 0.4 h | 0.6 ± 0.2 h |  | AUCinf (inflamed rats (group M)): 29.3 ± 13.8 ng·h/mL; AUClast (inflamed rats (group M)): 24.9 ± 14.6 ng·h/mL; MRTlast (inflamed rats (group M)): 4.1 ± 1.9 h; Vz/F (inflamed rats (group M)): 607.8 ± 396.5 L/kg; AUCinf (normal rats (group B)): 17.0 ± 2.0 ng·h/mL; AUClast (normal rats (group B)): 16.0 ± 2.0 ng·h/mL; CL/F (normal rats (group B)): 2377 ± 265 mL/min/kg; MRTlast (normal rats (group B)): 1.8 ± 0.1 h; Vz/F (normal rats (group B)): 339.5 ± 97.3 L/kg |
| COc1c(O[C@@H]2O[C@H](C(=O)O)[C@@H](O)[C@H](O)[C@H]2O)cc2oc(-c3ccccc3)cc(=O)c2c1O [oroxylin A-7-O-glucuronide] | 46.2±12.3% | 18194.0±6706.5 h*h*ng/ml | 108.7 ± 47.6 ng/mL | 65.5 ± 18.2 ng/mL | 20.1 ± 6.1 h | 0.09 ± 0.03 h | 9.6 ± 2.2 h |  |  |  |  |  |  | 10.3±6.8% | 1935.2±487.3 h*h*ng/ml | 106.9 ± 43.8 ng/mL | 85.8 ± 40.3 ng/mL | 3.2 ± 0.9 h | 0.09 ± 0.03 h | 4.0 ± 0.0 h | AUCinf (inflamed rats (group M)): 2157.4 ± 785.0 ng·h/mL; AUClast (inflamed rats (group M)): 1209.8 ± 606.4 ng·h/mL; CL/F (inflamed rats (group M)): 202 ± 70 mL/min/kg; MRTlast (inflamed rats (group M)): 12.5 ± 2.3 h; Vz/F (inflamed rats (group M)): 322.4 ± 22.0 L/kg; AUCinf (normal rats (group B)): 486.8 ± 96.9 ng·h/mL; AUClast (normal rats (group B)): 440.7 ± 106.9 ng·h/mL; CL/F (normal rats (group B)): 845 ± 225 mL/min/kg; MRTlast (normal rats (group B)): 4.4 ± 0.5 h; Vz/F (normal rats (group B)): 247.8 ± 140.4 L/kg |
| COc1c(O)cc2oc(-c3ccccc3)cc(=O)c2c1O [oroxylin A] | 13.4±8.6% | 365.4±192.9 h*h*ng/ml | 2.5 ± 1.1 ng/mL | 2.3 ± 0.8 ng/mL | 16.3 ± 8.8 h | 0.08 ± 0.0 h | 7.0 ± 3.0 h |  | 24.6 ± 6.1 ng·h/mL | 21.1 ± 4.1 ng·h/mL | 16.5 ± 6.2 h | 2.4 ± 0.5 ng·h/mL | 2.3 ± 0.5 ng·h/mL | 5.3±3.4% | 7.1±2.7 h*h*ng/ml | 1.5 ± 0.6 ng/mL | 0.4 ± 0.1 ng/mL | 1.7 ± 0.9 h | 0.08 ± 0.0 h | 4.0 ± 0.0 h | CL/F [2]: 1790 mL/min/kg; Vd/F [1]: 2820 ± 507 L/kg; MRT last [3]: 3 ± 0.6 h; Vd/F [3]: 2500 ± 1080 L/kg |

— PMC4900566, “Pharmacokinetic-Pharmacodynamic Analysis on Inflammation Rat Model after Oral Administration of Huang Lian Jie Du Decoction” (PLoS ONE, 2016)
